Measured values reported in patent US8471061B2 (priority 2004, dated 2013).
Where two headings read alike, the source gives them in different places.

How the values were obtained:
[1] = tested on: spiderwort Commelina communis; experiment: Plant activating effect, foliar application, spiderwort; format: in vivo; conditions: 21 days, 12 plants
Experimental: A total of 12 pots, in which 600 g of volcanic ash soil was packed in a porcelain pot of 12 cm in inner diameter, and 1 plant of a spiderwort Commelina communis grown to a height of 15 cm was planted in 1 pot, were prepared and placed under a constant temperature environment of 20° C., and foliar application treatment was carried out once a day using the following application liquids. Conditions of the leaves 21 days thereafter were observed.

Rice seeds (Akinishiki) = experiment: Plant growth regulation effect; format: in vivo; conditions: ratio to untreated plot
Experimental: Rice seeds (Akinishiki) were soaked in Benlate (manufactured by Sumika Takeda Engei) (200 times) aqueous solution for a whole day and night and then incubated at 30° C. under a dark condition to effect hastening of germination. Seeds of even pigeon breast stage were selected, 10 seeds were inserted using a pair of tweezers into a groove on one expanded polyethylene sheet, which was made using a cutter knife, and this sheet was floated on a tall Petri dish filled with 150 ml of 5-aminolevulinic acid phosphate of respective concentrations shown in Table 11 and incubated at 25° C. for 24 hours under 5,000 lux continuous light irradiation. The number of repetitions was set to 3 repetitions for each concentration. Examination was carried out three days thereafter, and lengths of the first leaf sheath and seminal root in each plot were measured to calculate their ratios to those in the untreated plot and to calculate average values thereof.

[2] = tested on: cotton (variety; M-5 Acala); experiment: Salinity tolerance improving effect; format: in vivo; set-up: key: salt damage: 0 = none, 5 = plant withered
Experimental: A porcelain pot of 12 cm in inner diameter having no drainage hole was filled with 600 g of upland soil, and 7 to 8 seeds of cotton seeds (variety; M-5 Acala) were sowed, covered with 1 cm in thickness of the soil and allowed to grow in a green house. Thereafter, general management was carried out, and at the time of leaflet development, a salinity improving agent containing each of the compounds to be tested with respective concentrations shown in Table 12 and 0.05% (v/v) of a spreader (Neoesterin: manufactured by Kumiai Chemical Industry) was prepared and was applied to foliage at an application volume of 100 liters per 10 are. Four days thereafter, sodium chloride in an amount which corresponds to 0 to 1.5% by weight per soil weight as shown in Table 12 was dissolved in 30 ml of water and added dropwise to the soil. By further continuing general cultivation, examination was carried out 23 days thereafter. the examination was carried out by naked eye observation, and the results of salt damage were evaluated based on the following 6 steps.
• 0: Absolutely no salt damage is observed. • 1: Very weak salt damage is observed. • 2: Weak salt damage is observed. • 3: Obvious salt damage is observed. • 4: Strong salt damage is observed. • 5: The plant body withered up due to salt damage.

apple variety “Fuji” = experiment: Coloring test of apple; format: in vivo
Experimental: The 5-aminolevulinic acid phosphate obtained in Example 1 was dissolved in ion exchange water to the predetermined concentration shown in the following table. A spreader (“Approach BI” manufactured by Maruwa Biochemical) was added to the liquid to a concentration of 0.1% by weight. The pH was adjusted using phosphoric acid.
An aqueous 5-aminolevulinic acid hydrochloride solution was prepared in the same manner, except that the above-described 5-aminolevulinic acid phosphate was changed to 5-aminolevulinic acid hydrochloride and the phosphoric acid for pH adjustment was changed to hydrochloric acid.
The thus prepared liquid was sprayed at a ratio of 2 liters per branch on three main branches where young fruits of an apple variety “Fuji” bored but not yet colored into red (September 15). About 2 months thereafter (November 6), the apples were harvested and their coloring degree was examined. A color meter CR-200 manufactured by MINOLTA CAMERA was used for the measurement of color.
The 5-aminolevulinic acid nitrate obtained in Example 16 was dissolved in ion exchange water to the predetermined concentration shown in Table 16. A spreader (“Approach BI” manufactured by Maruwa Biochemical) was added to the liquid to a concentration of 0.1% by weight. The pH was adjusted using nitric acid.
A solution was prepared in the same manner, except that the above-described 5-aminolevulinic acid nitrate was changed to 5-aminolevulinic acid hydrochloride and the nitric acid was changed to hydrochloric acid.
The 5-aminolevulinic acid p-toluenesulfonate obtained in Example 23 was dissolved in ion exchange water to the predetermined concentration shown in Table 24. A spreader (“Approach B1” manufactured by Maruwa Biochemical) was added to the liquid to a concentration of 0.1% by weight. The pH was adjusted using p-toluenesulfonic acid.
A solution was prepared in the same manner, except that the above-described 5-aminolevulinic acid p-toluenesulfonate was changed to 5-aminolevulinic acid hydrochloride and the p-toluenesulfonic acid was changed to hydrochloric acid.

[3] = tested on: New Zealand white rabbits (males), shaved uninjured skin; conditions: in vivo
Experimental: (§1) Using three New Zealand white rabbits (males), a solution prepared by dissolving 0.5 g of 5-aminolevulinic acid phosphate in 0.5 ml of distilled water (pH 3.1) was applied for 4 hours to a 2.5 cm square area of the shaved uninjured skin of each animal which was then observed for 1, 24, 48 and 72 hours.

[4] = pH of solution of 0.5 g in 0.5 ml of distilled water; format: physicochemical
Experimental: as §1

[5] = treating concentration 10 ppm, NaCl 0 wt % per soil weight
[6] = treating concentration 10 ppm, NaCl 0.5 wt % per soil weight
[7] = treating concentration 10 ppm, NaCl 0.75 wt % per soil weight
[8] = treating concentration 10 ppm, NaCl 1 wt % per soil weight
[9] = treating concentration 10 ppm, NaCl 1.5 wt % per soil weight
[10] = treating concentration 30 ppm, NaCl 0 wt % per soil weight
[11] = treating concentration 30 ppm, NaCl 0.5 wt % per soil weight
[12] = treating concentration 30 ppm, NaCl 0.75 wt % per soil weight
[13] = treating concentration 30 ppm, NaCl 1 wt % per soil weight
[14] = treating concentration 30 ppm, NaCl 1.5 wt % per soil weight
[15] = treating concentration 100 ppm, NaCl 0 wt % per soil weight
[16] = treating concentration 100 ppm, NaCl 0.5 wt % per soil weight
[17] = treating concentration 100 ppm, NaCl 0.75 wt % per soil weight
[18] = treating concentration 100 ppm, NaCl 1 wt % per soil weight
[19] = treating concentration 100 ppm, NaCl 1.5 wt % per soil weight
[20] = treating concentration 300 ppm, NaCl 0 wt % per soil weight
[21] = treating concentration 300 ppm, NaCl 0.5 wt % per soil weight
[22] = treating concentration 300 ppm, NaCl 0.75 wt % per soil weight
[23] = treating concentration 300 ppm, NaCl 1 wt % per soil weight
[24] = treating concentration 300 ppm, NaCl 1.5 wt % per soil weight
[25] = male, New Zealand white, rabbit, 1 h
[26] = male, New Zealand white, rabbit, 24 h
[27] = male, New Zealand white, rabbit, 48 h
[28] = male, New Zealand white, rabbit, 72 h

Cl.NCC(=O)CCC(=O)O [5-aminolevulinic acid hydrochloride, reference compound]
plants judged 0: Abnormality was not found on the leaf surface ([1]; 1 ppm in tap water): 2 plants
plants judged 1: A region discolored to yellow was found on the leaf surface ([1]; 1 ppm in tap water): 7 plants
plants judged 2: A necrotic region was found on the leaf surface ([1]; 1 ppm in tap water): 3 plants
plants judged 0: Abnormality was not found on the leaf surface ([1]; 10 ppm in tap water): 5 plants
plants judged 1: A region discolored to yellow was found on the leaf surface ([1]; 10 ppm in tap water): 5 plants
plants judged 2: A necrotic region was found on the leaf surface ([1]; 10 ppm in tap water): 2 plants
plants judged 0: Abnormality was not found on the leaf surface ([1]; 100 ppm in tap water): 5 plants
plants judged 1: A region discolored to yellow was found on the leaf surface ([1]; 100 ppm in tap water): 4 plants
plants judged 2: A necrotic region was found on the leaf surface ([1]; 100 ppm in tap water): 3 plants
First leaf sheath length (%) (Rice seeds (Akinishiki); 1 ppm): 107%
Seminal root length (%) (Rice seeds (Akinishiki); 1 ppm): 103%
First leaf sheath length (%) (Rice seeds (Akinishiki); 10 ppm): 101%
Seminal root length (%) (Rice seeds (Akinishiki); 10 ppm): 96%
First leaf sheath length (%) (Rice seeds (Akinishiki); 100 ppm): 98%
Seminal root length (%) (Rice seeds (Akinishiki); 100 ppm): 109%
salt damage evaluation [2, 5]: 0
salt damage evaluation [2, 6]: 1
salt damage evaluation [2, 7]: 1
salt damage evaluation [2, 8]: 1
salt damage evaluation [2, 9]: 2
salt damage evaluation [2, 10]: 0
salt damage evaluation [2, 11]: 1
salt damage evaluation [2, 12]: 2
salt damage evaluation [2, 13]: 3
salt damage evaluation [2, 14]: 3
salt damage evaluation [2, 15]: 0
salt damage evaluation [2, 16]: 1
salt damage evaluation [2, 17]: 1
salt damage evaluation [2, 18]: 2
salt damage evaluation [2, 19]: 3
salt damage evaluation [2, 20]: 0
salt damage evaluation [2, 21]: 0
salt damage evaluation [2, 22]: 1
salt damage evaluation [2, 23]: 1
salt damage evaluation [2, 24]: 2
Coloring, L (apple variety “Fuji”; 100 ppm (pH 5.0)): 42.28
Coloring, a (apple variety “Fuji”; 100 ppm (pH 5.0)): 25.96
Coloring, b (apple variety “Fuji”; 100 ppm (pH 5.0)): 14.72
Coloring, L (apple variety “Fuji”; 200 ppm (pH 4.8)): 42.34
Coloring, a (apple variety “Fuji”; 200 ppm (pH 4.8)): 30.92
Coloring, b (apple variety “Fuji”; 200 ppm (pH 4.8)): 14.41
judgement by the OECD Guideline from pH (animal test not carried out) ([3]; rabbit): judged corrosive
pH of solution [4]: ≤ 2.0

NCC(=O)CCC(=O)O.O=P(O)(O)O [5-aminolevulinic acid phosphate, 5-aminolevulinic Acid Phosphate]
plants judged 0: Abnormality was not found on the leaf surface ([1]; 1 ppm in tap water): 6 plants
plants judged 1: A region discolored to yellow was found on the leaf surface ([1]; 1 ppm in tap water): 5 plants
plants judged 2: A necrotic region was found on the leaf surface ([1]; 1 ppm in tap water): 1 plant^ plants
plants judged 0: Abnormality was not found on the leaf surface ([1]; 10 ppm in tap water): 7 plants
plants judged 1: A region discolored to yellow was found on the leaf surface ([1]; 10 ppm in tap water): 3 plants
plants judged 2: A necrotic region was found on the leaf surface ([1]; 10 ppm in tap water): 2 plants
plants judged 0: Abnormality was not found on the leaf surface ([1]; 100 ppm in tap water): 6 plants
plants judged 1: A region discolored to yellow was found on the leaf surface ([1]; 100 ppm in tap water): 4 plants
plants judged 2: A necrotic region was found on the leaf surface ([1]; 100 ppm in tap water): 2 plants
First leaf sheath length (%) (Rice seeds (Akinishiki); 1 ppm): 102%
Seminal root length (%) (Rice seeds (Akinishiki); 1 ppm): 106%
First leaf sheath length (%) (Rice seeds (Akinishiki); 10 ppm): 106%
Seminal root length (%) (Rice seeds (Akinishiki); 10 ppm): 108%
First leaf sheath length (%) (Rice seeds (Akinishiki); 100 ppm): 101%
Seminal root length (%) (Rice seeds (Akinishiki); 100 ppm): 101%
salt damage evaluation [2, 5]: 0
salt damage evaluation [2, 6]: 0
salt damage evaluation [2, 7]: 1
salt damage evaluation [2, 8]: 2
salt damage evaluation [2, 9]: 3
salt damage evaluation [2, 10]: 0
salt damage evaluation [2, 11]: 0
salt damage evaluation [2, 12]: 0
salt damage evaluation [2, 13]: 1
salt damage evaluation [2, 14]: 2
salt damage evaluation [2, 15]: 0
salt damage evaluation [2, 16]: 1
salt damage evaluation [2, 17]: 2
salt damage evaluation [2, 18]: 3
salt damage evaluation [2, 19]: 4
salt damage evaluation [2, 20]: 0
salt damage evaluation [2, 21]: 1
salt damage evaluation [2, 22]: 1
salt damage evaluation [2, 23]: 2
salt damage evaluation [2, 24]: 3
Coloring, L (apple variety “Fuji”; 100 ppm (pH 5.0)): 42.37
Coloring, a (apple variety “Fuji”; 100 ppm (pH 5.0)): 27.45
Coloring, b (apple variety “Fuji”; 100 ppm (pH 5.0)): 14.54
Coloring, L (apple variety “Fuji”; 200 ppm (pH 5.4)): 42.43
Coloring, a (apple variety “Fuji”; 200 ppm (pH 5.4)): 31.06
Coloring, b (apple variety “Fuji”; 200 ppm (pH 5.4)): 14.63
Coloring of red compared with 5-aminolevulinic acid hydrochloride (apple variety “Fuji”; in vivo): Coloring of red was denser
Formation of dropsy and edema (formed numbers), per rabbit ([3]; male, New Zealand white, 1 h): 0
Formation of erythema and dry crust (formed numbers), per rabbit ([3]; male, New Zealand white, 1 h): 1
Formation of dropsy and edema (formed numbers), per rabbit ([3]; male, New Zealand white, 24 h): 0
Formation of erythema and dry crust (formed numbers), per rabbit ([3]; male, New Zealand white, 24 h): 1
Formation of dropsy and edema (formed numbers), per rabbit ([3]; male, New Zealand white, 48 h): 0
Formation of erythema and dry crust (formed numbers), per rabbit ([3]; male, New Zealand white, 48 h): 0
Formation of dropsy and edema (formed numbers), per rabbit ([3]; male, New Zealand white, 72 h): 0
Formation of erythema and dry crust (formed numbers), per rabbit ([3]; male, New Zealand white, 72 h): 0
Total formed numbers after 24 hours and 72 hours ([3]; male, New Zealand white, rabbit): Total formed numbers after 24 hours and 72 hours: 3
Formation of dropsy and edema (formed numbers) [3, 25]: 0
Formation of dropsy and edema, Total of three rabbits [3, 25]: 0
Formation of erythema and dry crust (formed numbers) [3, 25]: 0
Formation of erythema and dry crust, Total of three rabbits [3, 25]: 3
skin reaction observed ([3]; male, New Zealand white, rabbit, 4 h): very slight red spots were observed within 24 hours, but became normal when observed after 48 hours
Formation of dropsy and edema (formed numbers) [3, 26]: 0
Formation of dropsy and edema, Total of three rabbits [3, 26]: 0
Formation of erythema and dry crust (formed numbers) [3, 26]: 0
Formation of erythema and dry crust, Total of three rabbits [3, 26]: 3
Formation of dropsy and edema (formed numbers) [3, 27]: 0
Formation of dropsy and edema, Total of three rabbits [3, 27]: 0
Formation of erythema and dry crust (formed numbers) [3, 27]: 0
Formation of erythema and dry crust, Total of three rabbits [3, 27]: 0
Formation of dropsy and edema (formed numbers) [3, 28]: 0
Formation of dropsy and edema, Total of three rabbits [3, 28]: 0
Formation of erythema and dry crust (formed numbers) [3, 28]: 0
Formation of erythema and dry crust, Total of three rabbits [3, 28]: 0
skin stimulation ([3]; rabbit): skin stimulation was not observed
stimulation classification (United Nations recommendation GHS) ([3]; rabbit): does not come under a stimulus substance
pH of solution [4]: 3.1
